A short description of data set [1]: Compatibility/stability of relacorilant with excipients at 40° C./75% RH and 60° C. Type of data set: physicochemical. On the procedure: The stability of relacorilant in a series of potential excipients was also examined for two weeks at 40° C. at 75% relative humidity, and at 60° C., including in formulations of Table I. The predominant degradation path was through formation of the aromatic decarbonylation of relacorilant with both propylene glycol monocaprylate and lauroyl polyoxyl-32 glyceride excipients. Relacorilant stability was good with both these excipients.

Data set [2] in a line: Stability of relacorilant to pH, moisture and light. Type of data set: physicochemical. How it is done: Relacorilant stability and compatibility with various excipients was tested and suitable excipients were identified. […] Lauryl polyoxyl-32 glycerides (Gelucire 44/14, available from Gattefosse USA, New Jersey) in place of the stearoyl polyoxyl-32 glycerides were then used. […] This formulation was tested for stability. Stability testing included testing of some formulations for up to one year.

As for `Cn1cc(S(=O)(=O)N2CCC3=Cc4c(cnn4-c4ccc(F)cc4)C[C@]3(C(=O)c3cc(C(F)(F)F)ccn3)C2)cn1` [Relacorilant, (R)-(1-(4-fluorophenyl)-6-((1-methyl-1H-pyrazol-4-yl)sulfonyl)-4,4a,5,6,7,8-hexahydro-1H-pyrazolo[3,4-g]isoquinolin-4a-yl)(4-(trifluoromethyl)pyridin-2-yl)methanone], the “purity (% relacorilant of relacorilant plus relacorilant-derived impurities)” value in data set [1] (in lauroyl polyoxyl-32 glycerides, 40° C./75% RH, 1 week) was found to be 97.64%; in data set [1] (in lauroyl polyoxyl-32 glycerides, 40° C./75% RH, 2 week), 97.55%; in data set [1] (in lauroyl polyoxyl-32 glycerides, 60° C., 1 week), 97.22%; in data set [1] (in lauroyl polyoxyl-32 glycerides, 60° C., 2 week), 96.77%; in data set [1] (in lauroyl polyoxyl-32 glycerides, Control), 98.09%; in data set [1] (in lauroyl polyoxyl-32 glycerides, T0), 98.13%. Also, the “purity (% relacorilant of relacorilant plus relacorilant-derived impurities)” value came to 98.00% in data set [1] (in propylene glycol monocaprylate, 40° C./75% RH, 1 week); 97.84% in data set [1] (in propylene glycol monocaprylate, 40° C./75% RH, 2 week); 97.51% in data set [1] (in propylene glycol monocaprylate, 60° C., 1 week); 96.65% in data set [1] (in propylene glycol monocaprylate, 60° C., 2 week); 98.03% in data set [1] (in propylene glycol monocaprylate, Control); 98.09% in data set [1] (in propylene glycol monocaprylate, T0). The “sensitivity to moisture and light” value in data set [2] was “sensitive to both moisture and light”. Further, the “stability in acidic aqueous solutions” value in data set [2] (acidic aqueous solutions) was “stable”. Further, the “stability under basic conditions” value in data set [2] (basic conditions) is on record as “sensitive to basic conditions”. Further, the “stability over time in formulations having basic pH” value in data set [2] (basic pH, particularly pH greater than 8, versus neutral or acidic pH) is recorded as “significantly less stable”. Moreover, the “stability in neutral solutions” value in data set [2] (neutral solutions at elevated temperatures) was “degrade over time”.

Values taken from patent US12514849B2, “Pharmaceutical formulations containing relacorilant, a heteroaryl-ketone fused azadecalin compound” (Corcept Therapeutics Incorporated, priority 2018, dated 2026).
